Assay results as given in patent US4282232A, “Nitroimidazole radiosensitizers for hypoxic tumor cells and compositions thereof” (priority 1979, dated 1981).
Read-outs that look alike come from different tables or passages of the source.

Assays:
in vivo = conditions: mouse, in vivo, ip
Protocol: (§1) Neurotoxicity in mice was determined using mice of strain BDF1. This was carried out by (1) determining the LD50 of each compound in mice and (2) observing the animals for acute neurotoxic symptoms such as convulsions. The drugs were either solubilized or suspended in normal saline and administered intraperitoneally to groups of 10 mice.

mice of strain BDF1 [1] = test: in vivo; conditions: intraperitoneal, 24 hours observation
Protocol: as §1

[2] = In vitro cytotoxicity (2 hour exposure); format: cell-based; conditions: chinese hamster, v-79-753 b cells; for MNTC at 2 h: read-out: In-vitro Cytotoxicity in cells: Nontoxic up to (concentration); for cytotoxicity at 2 h, 1000 µM: at 1mM
Protocol: (§2) Asynchronous monolayer cultures of Chinese hamster cells line V-79-753 B were employed in all the experiments. The monolayers were derived from exponentially-growing cultures. Methods of culturing and handling have been reported earlier by Cooke et al, Rad. Res. 65, 152 (1976). The plated cultures were rendered hypoxic in sealed dural containers capable of holding four petri dishes, by purging with nitrogen (oxygen-free grade) for one hour. Irradiation was carried out by using a Cobalt-60 source at a dose rate of approximately 310 rad/min according to the procedure described previously be Cooke et al, supra. A dose of 1395 rad was given to hypoxic cells in glass petri dishes in the presence of a given drug concentration (2000 cells/dish). Cell survival was estimated from unirradiated hypoxic cells exposed to the same drug concentration. Cultures were incubated for 6 days at 37° C. in an atmosphere of 5% CO2; the resulting colonies were fixed in absolute ethanol, stained with methylene blue and counted.
To determine toxicity in vitro, glass petri dishes containing approximately 200 cells/dish were exposed to a range of concentrations of each drug for 2 hours at room temperature (20° C.) in air or in hypoxia. Drug concentrations […] were employed.

hypoxic tumor cells = conditions: cited from earlier work; for selectivity (tumor cells versus normal tissue cells): DNA incorporating drugs; for radiosensitizing activity (in words): in vitro and/or in vivo
Redox potential = format: physicochemical
[3] = system: hypoxic cells (Chinese hamster cells line V-79-753 B); test: Differential cytotoxicity of hypoxic cells; format: cell-based
Protocol: as §2
[…] Drug concentrations between 10 μM were employed.

[4] = system: Chinese hamster cells line V-79-753 B; test: Radiosensitization of hypoxic Chinese hamster cells (Cobalt-60 irradiation, enhancement ratio); format: cell-based; conditions: 1395 rad Cobalt-60
Protocol: as §2

[5] = Toxicity, general statements of the description
mice = conditions: cited from earlier work
humans = conditions: cited from earlier work
mice of strain BDF1 [6] = conditions: footnote *: P. W. Sheldon, et al, Br. J. Cancer, 35, 795, 800 (1977); 1440 min; cited from earlier work
[7] = read-out: In-vitro Cytotoxicity in cells: inhibition

## O=[N+]([O-])c1nc2ccccc2n1CC[N+]1([O-])CCCCC1 [A, 1-(1'-oxido)piperidinoethyl-2-nitrobenzimidazole]
In vivo
  LD50 at 24 h: ~5000 mg/kg
Mice of strain BDF1 [1]
  Convulsions in mice at LD50 doses: None
[2]
  MNTC at 2 h: ≥ 10 mM

## O=[N+]([O-])c1nc2ccccc2n1CCN1CCCCC1 [B, 1-piperidinoethyl-2-nitrobenzimidazole]
Mice of strain BDF1 [1]
  Convulsions in mice at LD50 doses: Yes
  LD50 in mice: < 1 g
[2]; [7]
  cytotoxicity at 2 h, 1000 µM: 50%

## O=c1[nH]c(=O)n([C@H]2C[C@H](O)[C@@H](CO)O2)cc1Br [BUdR, 5-Bromodeoxyuridine]
Hypoxic tumor cells
  selectivity (tumor cells versus normal tissue cells): failed precisely because of their poor selectivity problem

## O=[N+]([O-])c1nccn1CC[N+]1([O-])CCCCC1 [C, 1-(1'-oxido)piperidinoethyl-2-nitroimidazole]
Redox potential
  Redox Potential: -0.32 V
In vivo
  LD50 at 24 h: > 5000 mg/kg
Mice of strain BDF1 [1]
  Convulsions in mice at LD50 doses: None
[3]; up to 4 hours
  Differential cytotoxicity of hypoxic cells: None
[4]
  Radiosensitization (enhancement ratio at 1mM in chinese hamster cells): 2.2
[2]
  MNTC at 2 h: ≥ 20 mM

## O=[N+]([O-])c1nccn1CCN1CCCCC1 [D, 1-piperidinoethyl-2-nitroimidazole]
In vivo
  LD50 at 24 h: 800 mg/kg
Mice of strain BDF1 [1]
  Convulsions in mice at LD50 doses: yes
[4]
  Radiosensitization (enhancement ratio at 1mM in chinese hamster cells): ~2.1
[2]; [7]
  cytotoxicity at 2 h, 1000 µM: 70%

## C[N+]1(CCn2ccnc2[N+](=O)[O-])CCCCC1 [E, 1-(1'-methiodide)-piperidinoethyl-2-nitroimidazole]
In vivo
  LD50 at 24 h: 250 mg/kg
Mice of strain BDF1 [1]
  Convulsions in mice at LD50 doses: yes
[5]
  toxicity (in words): more toxic than the parent non-quaternized piperidino compound itself
[2]; at 2mM, read-out: In-vitro Cytotoxicity in cells: inhibition
  cytotoxicity at 2 h, 2000 µM: 30%

## COCC(O)Cn1ccnc1[N+](=O)[O-] (stereo not drawn) [F, Misonidazole]
Redox potential
  Redox Potential: -0.389 V
Hypoxic tumor cells
  radiosensitizing activity (in words): effective in vivo
mice; oral, mice
  serious side effects when administered orally: peripheral neuropathy and convulsions in mice
[3]; exposure time not given
  Differential cytotoxicity of hypoxic cells: yes
humans; use in humans
  central nervous system (CNS) toxicity: limiting factor for their use in humans

## O=c1[nH]c(=O)n([C@H]2C[C@H](O)[C@@H](CO)O2)cc1F [FUdR, 5-Fluorodeoxyuridine]
Hypoxic tumor cells
  selectivity (tumor cells versus normal tissue cells): failed precisely because of their poor selectivity problem

## Cc1ncc([N+](=O)[O-])n1CCO [G, Metronidazole]
Redox potential
  Redox Potential: -0.486 V
Hypoxic tumor cells; as worded, listed as Metronidazole
  radiosensitizing activity (in words): active both in vivo and in vitro
Hypoxic tumor cells; as worded, listed as metronidazole
  radiosensitizing activity (in words): effective in vivo
mice; mouse, in vivo, po
  serious side effects when administered orally: peripheral neuropathy and convulsions in mice
[3]; exposure time not given
  Differential cytotoxicity of hypoxic cells: yes
Mice of strain BDF1 [6]
  LD50 in mice: 3.5 g/kg
[4]
  Radiosensitization (enhancement ratio at 1mM in chinese hamster cells): 1.5
humans; in vivo
  central nervous system (CNS) toxicity: limiting factor for their use in humans

## CN(C)CCC(=O)c1ccc([N+](=O)[O-])cc1.Cl [NDPP, p-nitro-3-dimethylamino propiophenone HCl]
Hypoxic tumor cells
  radiosensitizing activity (in words): appeared promising in vitro
